Data set [1] in a line: Water-solubility test of compound in normal saline solution. Format: physicochemical. As to conditions: saline or isotonic, thermodynamic from solid, 0.5 mg in 1 ml normal saline solution, 42° C., precipitation or deposits. The protocol: In 1 ml of normal saline solution of an official grade was dissolved 0.5 mg of a dye (i.e., the cyanine compound to be tested) to make a solution.

Data set [2] deals with tumor tissue of breast cancer mouse implanted in BALB/c nude mouse. The data set can be described thus: Fluorescent contrast imaging test in tumor-implanted nude mice. Format: in vivo. Also on record: key: A: fluorescence was clearly observed in the tumor portion; B: fluorescence was also observed in the normal portion but the tumor portion was discernible; C: the normal portion and the tumor portion emitted slight fluorescence but the tumor portion was barely discernible; D: slight fluorescence was emitted overall and the tumor portion was not discernible from the normal portion; E: no fluorescence was observed. As to conditions: 3 mg/kg through lactiferous duct and adenoid lobe; whole-body fluorescent imaging 30 min., 12 hr. and 24 hr. after dosage; fluorescence of tumor portion. The protocol:
Model mice having breast cancer were prepared by dosing a carcinogene, 7,12-dimethylbenz[a]anthracene (DMBA) to an acceleratedly aged mice, SAMP6/Ta type mouse as one system of a so-called SAM type to cause breast cancer. Carcinogenesis was carried out in accordance with the description of JP-A No. 2003-033125. To each of 20 SAMP6/Ta type mice, DMBA was dosed in an amount of 0.5 mg/mouse·week, a total of six times. Solid high-protein, high-calorie CA-1 (available from CLEA Japan Inc.) was fed to the mice. After completion of the 6th dose of the carcinogenic substance, the dosage was stopped until the 20th month calculated from the 1st month. Breast cancer and lung metastasis were examined in the manner of pathologic histology.
A segment (2 mm×2 mm square) of tumor tissue of the foregoing breast cancer mouse was implanted below the skin of the breast in the left chest of a BALB/c nude mouse (5 weeks old, CLEA Japan Inc.). After 10 days, when the tumor has grown up to a diameter of approximately 5 mm, the foregoing mice were subjected to the fluorescent contrast imaging test. A titanium/sapphire laser was used as an exciting light source. The test mice in a darkened box were uniformly exposed to laser light using a ring-type light guide (available from Sumita Optical Glass Inc.) so that the dispersion of exposure fell within 2%. The irradiation output was adjusted so as to be about 38 μW/cm^2 near the skin surface of the mice. Fluorescence was emitted by excitation at the absorption peak wavelength of the respective compounds and fluorescent radiation from the mice was subjected to detection and imaging by using a CCD camera (C4880, produced by Hamamatsu Photonics K.K.) together with a filter to cut reflection of incident light at the shorter wavelength side. The exposure time was adjusted in accordance with the fluorescence intensity of the respective compounds. As to the tumor portion, the image obtained by attaching a marker onto the skin surface and observing it under white light was superposed onto the image obtained by removing the marker, followed by exposure to a laser light in the dark and evaluation was made with respect to fluorescence emitted from the tumor portion.
Each of the test compounds shown in Table 1 was dissolved in a normal saline solution (at 0.5 mg/ml) and dosed to the mice through a lactiferous duct and an adenoid lobe. The dose was 3 mg/kg for the respective test compounds. […]

Data set [3] in a line: Discharge in vitro of cyanine compound (urethra catheter, liquid chromatograph). As to conditions: sum of discharge over one week after dosage; relative value, amount in vivo after dosage = 100. Also on record: species or system mouse. The protocol:
Discharge in vitro of a cyanine compound of contrast medium material was determined by fitting a urethra with a catheter and summing up the discharge over one week after the dosage, and represented by a relative value, based on the amount in vivo of the cyanine compound after the dosage thereof being 100. The discharge of a cyanine compound was determined using liquid chromatograph 2010 (available from Shimazu Corporation).

Consider 4 molecules from patent US7682602B2, “Near-infrared fluorescent contrast medium” (Konica Minolta Medical & Graphic, Inc., priority 2003, dated 2010).

As to `CC1(C)C(/C=C/C=C/C=C/C=C2/N(CCCCS(=O)(=O)O)c3ccc4cc(S(=O)(=O)O)cc(S(=O)(=O)[O-])c4c3C2(C)C)=[N+](CCCCS(=O)(=O)O)c2ccc3cc(S(=O)(=O)O)cc(S(=O)(=O)O)c3c21` [Compound C-2], the solubility at 1 week in data set [1] is above 500 µg/mL. In addition, the “Contrast Imaging” value in data set [2] is listed as “B”. The “Discharge in vitro (%)” value in data set [3] was 97.0%.
The like results for `CC1(C)C(/C=C/C=C/C=C/C=C2/N(CCCCS(=O)(=O)[O-])c3ccc4ccccc4c3C2(C)C)=[N+](CCCCS(=O)(=O)[O-])c2ccc3ccccc3c21.[Na+]` [Compound C-1, indoaniline green] were, in that order, below 500 µg/mL, “C” and 99.0%.
For the molecule `CC12CCC(/C=C/C=C/C3=CC(=C4\CCC5(C)C4=[N+](CC(O)CS(=O)(=O)O)c4ccc(S(=O)(=O)[O-])cc45)/CCC3)=C1N(CC(O)CS(=O)(=O)O)c1ccc(S(=O)(=O)O)cc12` (stereo not drawn) [Compound 37], in data set [1], the solubility at 1 week is above 500 µg/mL. The “Contrast Imaging” value in data set [2] is “A”. In addition, the “Discharge in vitro (%)” value in data set [3] was found to be 99.0%.
For `CC12CCC(/C=C/C=C/C=C3\CCC4(C)C3=[N+](CC(O)CS(=O)(=O)[O-])c3cccnc34)=C1N(CC(O)CS(=O)(=O)O)c1cccnc12` (stereo not drawn) [Compound 12], in that order: above 500 µg/mL, “A” and 99.0%.
